# PMC7932521, “2-aminobenzimidazoles for leishmaniasis: From initial hit discovery to in vivo profiling” (PLoS Neglected Tropical Diseases, 2021)
# Like-named read-outs stand apart in the source and are kept apart here.
# Legend:
# [1] = test system: Leishmania infantum MHOM/MA(BE)/67/ITMAP263 amastigotes; assay: L. infantum intracellular amastigote assay in PMM; assay type: cell-based; settings: for IC50: Leishmania infantum, read-out: L. infantum IC50; for SI: selectivity index (CC50 / IC50): CC50 / L. infantum IC50
# Method: (§1) Leishmania infantum MHOM/MA(BE)/67/ITMAP263 amastigotes were collected from the spleen of infected donor Golden hamsters. Primary peritoneal mouse macrophages (PMM) were used as host cells for in vitro assays. PMM were collected from Swiss mice after 2 days of peritoneal stimulation with a 2% suspension of potato starch and maintained in RPMI-1640 medium supplemented with 200 mM L-glutamine, antibiotics and 5% FCS at 37°C and 5% CO2. Promastigotes of L. infantum chagasi (luciferase) (MHOM/BR/2005/NLC) obtained as described in Reimão et al.,[27] were grown in M199 medium supplemented with 10% FCS, 0.25% hemin, 32 μg/ml hygromycin and 2% sterile human urine at 25°C and 5% CO2.
# (§2) Stock solutions of the compounds at 20 mM were prepared in 100% DMSO. Next, the compounds were serially pre-diluted in DMSO followed by a further dilution in demineralized water to assure a final in-test DMSO concentration below 1%. The compounds were tested at 4-fold dilutions starting at 64 μM.
# For the antileishmania in vitro assays, 3×10^4 PMM/well were seeded in 96-well plates. After 24h, 5×10^5 amastigotes/well were added and incubated for 2h at 37°C. Next, the compounds in 4-fold serial dilutions were added and the plates were further incubated for 5 days (37°C, 5% CO2). Parasite burdens were assessed using an inverted microscope after Giemsa staining. The results were expressed as percent reduction in parasite burdens compared to negative control wells (100% growth) and IC50 values were determined. Values represent the geometric mean of at least two independent experiments. Miltefosine was used as the positive control in all plates.
# MRC-5 cytotoxicity = assay type: cell-based; settings: human, MRC-5 cells; S1 Data
# [2] = test system: PMM (Primary Mouse Macrophages); assay: Cytotoxicity on primary peritoneal mouse macrophages; assay type: cell-based; settings: Mus musculus, Macrophage, read-out: PMM IC50
# Method: as §1, §2
# [3] = Experimental distribution coefficient (eLogD); assay type: physicochemical; settings: pH 7.4
# Method: To determine the lipophilicity of the compounds, a methodology based on the retention time of molecules in reverse stationary phase (Ascentis RP-Amide HPLC column) was used. The chromatogram was obtained using LC-MS/MS. Test compounds were prepared at 1.0 μg/mL by adding the stock solution at (1:1) mobile phases A:B + internal standard at 200nM (A: 5% methanol in 10mM ammonium acetate pH 7.4, B: 100% methanol), DMSO concentration must be lower than 2%. […] The retention time (in minutes) of each of the eight standards was plotted against their LogD values. The resulting equation for the calibration curve (y = mx + b) was used to calculate the LogD values for the test compounds.
# [4] = Parallel artificial membrane permeability assay (PAMPA); assay type: in vitro ADME; settings: PAMPA, S1 Data; read-out: PAMPA Pe
# Method: To determine the passive permeability of the compounds, a 96-well plate containing membranes pre-coated with lipids (Corning Gentest # 353015) was used. The solutions of the compounds were prepared by diluting the stock solutions (10mM) in phosphate buffered saline (PBS) pH 6.5 at a final concentration of 10μM. The solutions diluted in PBS pH 6.5 were then added to the donor portion of the plate (300 μl/well), while PBS pH 7.4 (200 μl/well) was added to the acceptor portion. The two portions of the plate were then coupled, and the system was incubated for 5 h at 37°C. At the end of the incubation, samples were collected from the donor and acceptor plates, and then added to plates containing quench solution (10% water and 90% methanol: acetonitrile (50:50) + 50 nM tolbutamide). The final concentrations of compounds in the donor, acceptor, and initial solution (T0) wells were analyzed using LC-MS/MS. The results were used to calculate an effective permeability (Pe) value. The PAMPA assay was performed in triplicate (n = 3).
# [5] = Mouse liver microsomal stability; assay type: in vitro ADME; settings: for microsomal CLint at 0.5 μM: CD1, mouse, liver microsomes, pH 7.4, S1 Data, read-out: MLM CLint; for MLM CLint: S1 Data
# Method: The metabolic stability of the compounds was evaluated in human (pool of 200 donors, XenoTech) and mouse liver microsomes (CD1 mouse, GIBCO). Test compounds were prepared at a concentration of 0.5 μM and incubated with 0.25 mg/mL liver microsomes at pH 7.4 and 37°C. The reaction was started by addition of NADPH at […]. Samples were taken at 0, 5, 10, 15, 20 and 30 minutes. The reaction was stopped by the addition of acetonitrile:methanol (1:1) containing an internal standard (tolbutamide at 50 nM). Compounds were quantified by liquid chromatography triple quadrupole mass spectrometry (LC-MS/MS). Peak area ratios (analyte/internal standard) were converted to % remaining using the area ratio at time 0 as 100%. Half-life (t1/2 = ln(2)/k) in minutes and intrinsic clearance (Clint = k x 1000/(0.25)) in μL/min/mg were calculated using a non-linear regression from % remaining versus incubation time. From this plot, the slope (k) was determined. The analysis conditions were: analytical column (Gemini C18, […], Phenomenex), electrospray ionization source (ESI) in positive and negative mode, mobile phase A (water + 0.1% formic acid) and B (acetonitrile + 0.1% formic acid), flow rate of 0.7 mL/min.
# [6] = 120 h, intracellular amastigotes in PMM, 5 days
# [7] = reverse stationary phase HPLC column (Ascentis RP-Amide), S1 Data
# [8] = reverse-phase HPLC retention (Ascentis RP-Amide column), experimental
SMILES,"IC50 [1, 6]",IC50 ([1]; S1 Data),CC50 (MRC-5 cytotoxicity),IC50 [2],"chromatographic logD [3, 7]","Papp at 5 h, 10 μM [4]",microsomal CLint at 0.5 μM [5],SI: selectivity index (CC50 / IC50) [1],"chromatographic logD [3, 8]",MLM CLint [5],eLogD ([3]; experimental),"L. infantum IC50 ([1]; intracellular amastigotes in PMM, 5 days)"
"O=C(Cc1ccc(F)cc1)Nc1nc2ccc(F)cc2n1CC1CC1 [Compound 21, Fc1cc2c(nc(NC(=O)Cc3ccc(F)cc3)n2CC4CC4)cc1]",8.1 µM,8.06 µM,17.4 µM,> 64 µM,4.12,19.4 ×10⁻⁶ cm/s,887 µL/min/mg,,,,,
"Cn1nccc1C(=O)Nc1nc2cccnc2n1CC(C)(C)C [Compound 54, CC(Cn1c(NC(=O)c2n(C)ncc2)nc(c13)cccn3)(C)C]",7.8 µM,7.75 µM,43.7 µM,32 µM,4.04,11.7 ×10⁻⁶ cm/s,,4,4,222 µL/min/mg,,
"Cn1ccc(C(=O)Nc2nc3ccc(C#N)cc3n2CC(F)(F)F)n1 [Compound 35, O=C(c1nn(C)cc1)Nc2nc(ccc(C#N)c3)c3n2CC(F)(F)F]",26 µM,25.7 µM,58.2 µM,32 µM,4.15,13.9 ×10⁻⁶ cm/s,,1,,73 µL/min/mg,4.2,
"Cn1nccc1C(=O)Nc1nc2ccc(C#N)cc2n1CC(F)F [Compound 47, FC(F)Cn1c(cc(C#N)cc2)c2nc1NC(c3ccnn3C)=O]",8.8 µM,8.78 µM,12.3 µM,22.6 µM,,10.6 ×10⁻⁶ cm/s,,3,,383 µL/min/mg,,
"CC(C)(C)Cn1c(NC(=O)c2ccn(CCO)n2)nc2ccc(C#N)cc21 [Compound 38, O=C(c1nn(CCO)cc1)Nc2nc(ccc(C#N)c3)c3n2CC(C)(C)C]",,> 64 µM,> 64 µM,> 64 µM,4.03,7.54 ×10⁻⁶ cm/s,< 23 µL/min/mg,1,4,,,
"O=C(Cc1ccc(Cl)cc1)Nc1nc2cc(F)ccc2[nH]1 [Compound 18, Fc1ccc([nH]c(NC(Cc2ccc(Cl)cc2)=O)n3)c3c1]",,> 64 µM,> 64 µM,> 64 µM,4.26,6.04 ×10⁻⁶ cm/s,366 µL/min/mg,,3.9,,,poor activity
"CC(C)(C)n1c(NC(=O)Cc2ccc(F)cc2)nc2cc(F)ccc21 [Compound 19, Fc1cc(nc(NC(=O)Cc2ccc(F)cc2)n3C(C)(C)C)c3cc1]",19 µM,18.6 µM,> 64 µM,> 64 µM,4.04,6.35 ×10⁻⁶ cm/s,373 µL/min/mg,,4,,,
"Cn1nccc1C(=O)Nc1nc2ccc(C#N)cc2n1CCF [Compound 48, FCCn1c(cc(C#N)cc2)c2nc1NC(c3ccnn3C)=O]",28 µM,27.9 µM,13.7 µM,32 µM,,63.7 ×10⁻⁶ cm/s,,1,,154 µL/min/mg,,
